Results taken from patent US12565680B2, “Cancer neoantigens and their utilities in cancer vaccines and TCR-based cancer immunotherapy” (THE METHODIST HOSPITAL SYSTEM, priority 2018, dated 2026).

Tested on: 135TIL
Assay: TCR β CDR3 repertoire analysis
Design: species or system human
Conditions: TCRβ CDR3 profiling
From the text: To address this issue, PCDHB16 neoantigen-specific CD4^+ T cells were isolated by FACS sorting of PCDHB16-neoantigen T cells from freshly generated bulk T cells after stimulated PCDHB16 neoepitope peptide-pulsed 135EBV-B cells. Using the similar approach, MPG-specific CD8+ T cells were also purified from freshly generated bulk T cells after stimulated MPG neoepitope peptide-pulsed 135EBV-B cells. Genomic DNAs were isolated from the two purified neoantigen-specific T cell populations, as well as the parental bulk T cells, and used as templates for TCR β-chain CDR3 repertoire amplification. […] After the amplicons (from PCDHB16-, MPG-specific T cells and bulk 135TIL) were subjected to deep-sequenced via next-generation sequencing (reads>100,000 per sample), followed by bioinformatic analysis and TCR repertoire alignment. […] The relative TCR sequence frequencies that were identical to those in PCDHB16-specific T cells and MPG-specific T cells were determined in total 135TIL cell population (FIG. 10F). […]
Cytokine Secretion Assay-Detection Kit (MACS Miltenyi Biotec) was used in cell-surface IFN-γ staining based on a commercial protocol. […] Finally cells were washed with cold buffer and ready for flow cytometric analysis. […]

ENSPLGTEFPLNYALDLDVGSNNVQ [PCDHB16, immunodominant MHC-II neoantigen of patient #135]
neoantigen-specific TCRs in the total 135TIL TCRs: 36%
